The values below come from patent US8642516B2, “Chemically-defined arrays for screening cell-substrate interactions” (Wisconsin Alumni Research Foundation, priority 2012, dated 2014).

Holding throughout (type): cell-based, human
The test system of assay [1] is HUVEC. Briefly: HUVEC proliferation (normalized cell number C72/C0) on SAM array spots presenting GRGDSP. To be noted: HUVECs, 72 hours. As for the experimental part:
(§1) For cell assays on SAM arrays, HUVECs or hMSCs were removed from plastic culture plates using a 0.05% trypsin solution, resuspended in media, and seeded onto SAM arrays in sterile polystyrene Petri dishes. After allowing cells to attach for ˜1 hour in a humidified incubator at 37° C. and 5% CO2, arrays were dipped in warm media to remove loosely attached cells and then transferred to a rectangular multidish (Thermo Scientific/Nunc, Rochester, N.Y.) with warm media and imaged ˜4 hours later serving as “0 hr.” For the initial time point and subsequent time-lapse imaging, arrays were placed on an incubated stage and each array spot was imaged every 15 minutes for 72 hours. […]
(§2) Relative cell attachment at 0 hrs was quantified by counting the number of attached cells per spot and normalizing cell numbers to maximal attachment conditions. Normalized cell number was calculated by dividing the number of cells per spot at 72 hours (C72) to the cell number observed on the same spot at 0 hrs (C0). Relative proliferation was determined by dividing normalized cell numbers at 72 hours by the maximum average normalized cell number observed across GRGDSP density conditions. Similarly, relative spreading was determined by dividing projected cell areas to the maximum average projected cell area observed across GRGDSP density conditions. […]

For assay [2], the system named is hMSC. Briefly: hMSC migration (single cell tracking) on SAM array spots presenting GRGDSP. The note with it: hMSCs, each ligand density condition (0.06%-5%). The protocol: as §1, §2
Assay [3] has as its system HUVEC. Briefly: HUVEC spreading (projected cell area) on SAM array spots presenting GRGDSP. The protocol: For cell assays on SAM arrays, HUVECs or hMSCs were removed from plastic culture plates using a 0.05% trypsin solution, resuspended in media, and seeded onto SAM arrays in sterile polystyrene Petri dishes. After allowing cells to attach for ˜1 hour in a humidified incubator at 37° C. and 5% CO2, arrays were dipped in warm media to remove loosely attached cells and then transferred to a rectangular multidish (Thermo Scientific/Nunc, Rochester, N.Y.) with warm media and imaged ˜4 hours later serving as “0 hr.” For the initial time point and subsequent time-lapse imaging, arrays were placed on an incubated stage and each array spot was imaged every 15 minutes for 72 hours. Furthermore, it is important to point out that all cell experiments for comparison between HUVECs and hMSCs were run simultaneously.
For immunocytochemistry, at 24 and 72 hour time points during the time-lapse experiment, staining for the actin cytoskeleton and focal adhesion markers was performed as directed by the manufacturer (Catalog No. FAK100, Millipore, Billerica, Mass.). […]
Relative cell attachment at 0 hrs was quantified by counting the number of attached cells per spot and normalizing cell numbers to maximal attachment conditions. Normalized cell number was calculated by dividing the number of cells per spot at 72 hours (C72) to the cell number observed on the same spot at 0 hrs (C0). Relative proliferation was determined by dividing normalized cell numbers at 72 hours by the maximum average normalized cell number observed across GRGDSP density conditions. Similarly, relative spreading was determined by dividing projected cell areas to the maximum average projected cell area observed across GRGDSP density conditions. […] For each spot, average cell projected area was calculated by dividing the thresholded actin staining (red channel) by the total number of nuclei in the same spot. […]
Specifically, SAM arrays were prepared as described above. […] Cell spreading was determined by culturing HUVECs and hMSCs for 24 hours and 72 hours and analyzed by cell staining and quantified by measuring projected cell area. […]

The subject of assay [4] is hMSC. Briefly: hMSC proliferation (normalized cell number C72/C0) on SAM array spots presenting GRGDSP. The note with it: hMSCs, 72 hours. As for the experimental part:
as §1, §2

The subject of assay [5] is hMSC. Briefly: hMSC spreading (projected cell area) on SAM array spots presenting GRGDSP. The note with it: hMSCs. The protocol:
as §1, §2

Assay [6] has as its system HUVEC. Briefly: HUVEC migration (single cell tracking) on SAM array spots presenting GRGDSP. The note with it: HUVECs. The protocol:
as §1, §2

Turning to GRGDSP, the “maximum normalized cell number (C72/C0)” value in assay [1] (across GRGDSP densities) was found to be 1.6; in assay [4] (across GRGDSP densities), 6.1. Besides, the proliferation entry in assay [1] (below 0.06% GRGDSP) and in assay [4] (below 0.06% GRGDSP) was “no proliferation” throughout. The results for the “fraction of migrating cells” value in assay [2], in assay [6] (high GRGDSP densities) and in assay [6] (lower GRGDSP densities) were “greater than 37%”, “virtually no cells migrating” and “over 30%”, respectively. The “maximal HUVEC spreading (projected cell area)” value in assay [3] (72 hours, SAM spots with 1.67% and 5% GRGDSP) is recorded as 6000 μm^2. Besides, the “maximal projected cell area” value in assay [3] (HUVECs, 24 hrs, SAM spots with 1.6% and 5% GRGDSP) was “greater than 4000 μm^2”; in assay [5] (24 hrs, SAM spots with 1.6% and 5% GRGDSP), “greater than 4000 μm^2”. In addition, the “change in projected cell area from 24 to 72 hrs” value is listed as “increasing their projected cell area” in assay [3] (HUVECs, all GRGDSP densities above 0.06%) and “slight decreases” in assay [5] (across several GRGDSP densities).
